Data as given in paper PMC11054143, “^68Ga-DOTA-D-Alanine-BoroPro Radiotracer for Imaging of the Fibroblast Activation Protein in Malignant and Non-Malignant Diseases” (Pharmaceutics, 2024).

Target: T1, fibroblast activation protein (FAP) (Homo sapiens, UniProt Q12884)
T1 sequence (Q12884 1-760): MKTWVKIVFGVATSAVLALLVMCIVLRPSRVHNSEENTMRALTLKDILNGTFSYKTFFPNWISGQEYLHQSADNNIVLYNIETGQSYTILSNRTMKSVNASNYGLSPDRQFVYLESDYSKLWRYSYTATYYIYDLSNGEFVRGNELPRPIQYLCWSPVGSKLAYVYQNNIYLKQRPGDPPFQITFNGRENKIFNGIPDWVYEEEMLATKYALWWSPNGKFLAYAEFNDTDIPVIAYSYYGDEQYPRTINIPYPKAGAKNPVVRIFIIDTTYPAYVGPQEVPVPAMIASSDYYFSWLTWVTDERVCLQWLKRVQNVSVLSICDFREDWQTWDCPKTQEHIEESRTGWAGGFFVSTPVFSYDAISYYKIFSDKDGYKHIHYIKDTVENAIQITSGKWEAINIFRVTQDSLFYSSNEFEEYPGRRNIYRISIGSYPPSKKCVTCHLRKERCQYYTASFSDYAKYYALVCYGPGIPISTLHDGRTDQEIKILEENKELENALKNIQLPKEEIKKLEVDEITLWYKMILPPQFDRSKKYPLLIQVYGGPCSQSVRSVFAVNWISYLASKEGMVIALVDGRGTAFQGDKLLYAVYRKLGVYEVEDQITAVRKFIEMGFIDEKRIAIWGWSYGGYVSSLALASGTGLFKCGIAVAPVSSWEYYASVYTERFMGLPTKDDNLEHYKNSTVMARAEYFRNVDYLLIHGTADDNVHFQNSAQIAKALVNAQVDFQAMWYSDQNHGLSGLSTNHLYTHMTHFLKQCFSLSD
Assay: unlabelled competitor ([…] concentrations) displacing […]-iFAP from HCT116 cells
Assay type: cell-based

Question: How did the IC50 turn out when `C[C@H](NC(=O)c1ccc(NNC(=S)Nc2ccc(CC3CN(CC(=O)O)CCN(CC(=O)O)CCN(CC(=O)O)CCN3CC(=O)O)cc2)nc1)C(=O)N1CCC[C@@H]1B(O)O` (stereo partly drawn) [DOTA-iFAP, 2,2′,2″,2‴-(2-(4-(2-(5-(((S)-1-((S)-2-boronopyrrolidin-1-yl)-1-oxopropan-2-yl)carbamoyl)pyridin-2-yl)hydrazine-1-carbothioamido)benzyl)-1,4,7,10-tetraazacyclododecane-1,4,7,10-tetrayl)tetraacetic acid] was run?
Answer: Its IC50 is 0.57 nM.
